Measured values published in ChEMBL document CHEMBL1146215, “Computer-aided rational drug design: a novel agent (SR13668) designed to mimic the unique anticancer mechanisms of dietary indole-3-carbinol to block Akt signaling” (J Med Chem, 2007).
Each block holds one molecule with its values, some of them ahead of it. The source made the active and inactive calls. The rule behind the calls is not given here.

What was measured:
MCF7 [1] = assay: Antitumor activity against MCF7 cells; type: functional, cell-based; settings: Homo sapiens
MCF7 [2] = assay: Inhibition of tumor growth in MCF7 cells xenografted BALB/c mouse at 10 mg/kg/day, ip after 30 days; type: functional, Homo sapiens; settings: 720 h, route intraperitoneal
MCF7 [3] = assay: Inhibition of tumor growth in MCF7 cells xenografted BALB/c mouse at 10 mg/kg/day, po after 30 days; type: functional, Homo sapiens; settings: MCF7, 720 h
Mus musculus [4] = species: Mus musculus; assay: Genotoxicity by mouse micronucleus test; type: toxicity, organism-based; settings: in vivo
PC-3 [5] = assay: Inhibition of tumor growth in PC3 cells xenografted po dosed mouse; type: functional, organism-based; settings: Homo sapiens
[6] = molecular target: RAC-beta serine/threonine-protein kinase (Homo sapiens) (UniProt P31751); assay: Inhibition of Akt2
Sequence of RAC-beta serine/threonine-protein kinase (Homo sapiens) (P31751 whole entry): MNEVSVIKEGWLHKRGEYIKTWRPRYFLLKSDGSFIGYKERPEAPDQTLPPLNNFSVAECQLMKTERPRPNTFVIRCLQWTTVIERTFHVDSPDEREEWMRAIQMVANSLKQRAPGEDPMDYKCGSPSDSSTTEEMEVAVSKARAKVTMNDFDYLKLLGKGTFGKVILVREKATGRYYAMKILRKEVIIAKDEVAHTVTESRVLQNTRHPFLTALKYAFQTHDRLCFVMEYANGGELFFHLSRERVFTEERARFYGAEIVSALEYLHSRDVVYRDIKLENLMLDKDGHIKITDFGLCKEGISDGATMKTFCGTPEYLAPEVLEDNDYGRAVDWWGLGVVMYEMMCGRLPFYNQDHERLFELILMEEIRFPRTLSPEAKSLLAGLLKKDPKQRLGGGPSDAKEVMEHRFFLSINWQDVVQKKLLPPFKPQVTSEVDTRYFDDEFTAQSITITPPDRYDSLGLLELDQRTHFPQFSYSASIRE

Mus musculus [7] = assay: Toxicity assessed as effect on body weight of mouse at 500 mg/kg/day, po after 14 days; type: organism-based; design: route oral; settings: in vivo, 336 h
Rattus norvegicus [8] = assay: Toxicity in Sprague-Dawley rat at 25 mg/kg/day, po after 14 days; type: organism-based; design: route oral; settings: in vivo, 336 h
MDA-MB-231 = assay: Inhibition of tumor growth in MDA-MB-231 cells xenografted po dosed mouse; type: functional, organism-based; settings: Homo sapiens
Rattus norvegicus [9] = assay: Toxicity in Sprague-Dawley rat at 600 mg/kg/day, po after 14 days; type: organism-based; design: route oral; settings: in vivo, 336 h
[10] = molecular target: RAC-alpha serine/threonine-protein kinase (Homo sapiens) (UniProt P31749); assay: Inhibition of Akt1
Sequence of RAC-alpha serine/threonine-protein kinase (Homo sapiens) (P31749 whole entry): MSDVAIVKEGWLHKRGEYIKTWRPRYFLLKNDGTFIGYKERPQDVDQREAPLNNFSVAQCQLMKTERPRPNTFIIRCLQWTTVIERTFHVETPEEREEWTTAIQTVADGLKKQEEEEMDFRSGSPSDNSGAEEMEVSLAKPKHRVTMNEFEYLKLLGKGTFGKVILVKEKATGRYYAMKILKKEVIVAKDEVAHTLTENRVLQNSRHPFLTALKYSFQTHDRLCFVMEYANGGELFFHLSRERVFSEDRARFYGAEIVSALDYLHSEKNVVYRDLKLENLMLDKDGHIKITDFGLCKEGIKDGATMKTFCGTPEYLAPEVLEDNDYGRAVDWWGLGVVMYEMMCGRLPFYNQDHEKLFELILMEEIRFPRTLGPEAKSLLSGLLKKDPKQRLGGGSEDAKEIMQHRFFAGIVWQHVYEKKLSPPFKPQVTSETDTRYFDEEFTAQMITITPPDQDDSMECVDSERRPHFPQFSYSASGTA

MDA-MB-468 = assay: Inhibition of serum-stimulated AKT phosphorylation in MDA-MB-468 cells; type: cell-based; settings: Homo sapiens
PC-3 [11] = assay: Inhibition of serum-stimulated AKT phosphorylation in PC3 cells; type: cell-based; settings: Homo sapiens
SK-OV-3 = assay: Inhibition of tumor growth in SKOV3 cells xenografted po dosed mouse; type: functional, organism-based; settings: Homo sapiens
Homo sapiens = species: Homo sapiens; assay: Inhibition of PI3K
Rattus norvegicus [12] = assay: Toxicity in Sprague-Dawley rat at 200 mg/kg/day, po after 14 days; type: organism-based; design: route oral; settings: in vivo, 336 h
[13] = molecular target: Glycogen synthase kinase-3 beta (Homo sapiens) (UniProt P49841); assay: Inhibition of GSK3-beta activity in PC3 cells; type: cell-based; settings: PC-3
Sequence of Glycogen synthase kinase-3 beta (Homo sapiens) (P49841 whole entry, looked up): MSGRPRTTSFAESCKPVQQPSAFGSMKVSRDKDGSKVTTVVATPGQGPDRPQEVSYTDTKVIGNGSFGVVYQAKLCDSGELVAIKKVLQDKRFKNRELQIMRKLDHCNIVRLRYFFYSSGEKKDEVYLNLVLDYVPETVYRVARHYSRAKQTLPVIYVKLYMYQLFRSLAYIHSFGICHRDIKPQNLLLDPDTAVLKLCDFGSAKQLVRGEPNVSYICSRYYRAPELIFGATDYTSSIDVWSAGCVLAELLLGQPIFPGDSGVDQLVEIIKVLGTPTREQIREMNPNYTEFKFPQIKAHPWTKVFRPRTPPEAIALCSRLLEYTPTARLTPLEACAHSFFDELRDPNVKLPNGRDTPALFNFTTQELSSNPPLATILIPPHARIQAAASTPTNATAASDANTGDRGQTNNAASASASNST

[14] = molecular target: T1, 3-phosphoinositide-dependent protein kinase 1 (Homo sapiens) (UniProt O15530); assay: Inhibition of PDK1
T1 sequence (whole entry): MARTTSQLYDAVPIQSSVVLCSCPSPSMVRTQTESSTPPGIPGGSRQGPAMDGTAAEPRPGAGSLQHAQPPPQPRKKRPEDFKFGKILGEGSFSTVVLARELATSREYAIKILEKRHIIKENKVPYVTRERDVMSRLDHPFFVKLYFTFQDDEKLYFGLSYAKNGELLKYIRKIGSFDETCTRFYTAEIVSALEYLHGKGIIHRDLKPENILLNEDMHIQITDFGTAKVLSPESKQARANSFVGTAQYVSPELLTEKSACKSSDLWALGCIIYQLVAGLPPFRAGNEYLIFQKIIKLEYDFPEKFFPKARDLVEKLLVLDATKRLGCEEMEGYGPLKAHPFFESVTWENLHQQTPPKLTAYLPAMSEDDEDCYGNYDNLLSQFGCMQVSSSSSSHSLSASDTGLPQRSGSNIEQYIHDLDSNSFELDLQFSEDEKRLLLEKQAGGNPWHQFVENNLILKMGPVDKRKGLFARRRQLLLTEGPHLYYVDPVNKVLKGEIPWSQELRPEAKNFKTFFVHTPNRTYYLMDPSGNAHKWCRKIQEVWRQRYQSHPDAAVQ

Mus musculus [15] = assay: Toxicity assessed as effect on fasting glucose level in mouse at 500 mg/kg/day, po after 14 days; type: organism-based; design: route oral; settings: in vivo, 336 h
[16] = molecular target: RAC-gamma serine/threonine-protein kinase (Homo sapiens) (UniProt Q9Y243); assay: Inhibition of Akt3
Sequence of RAC-gamma serine/threonine-protein kinase (Homo sapiens) (Q9Y243 whole entry): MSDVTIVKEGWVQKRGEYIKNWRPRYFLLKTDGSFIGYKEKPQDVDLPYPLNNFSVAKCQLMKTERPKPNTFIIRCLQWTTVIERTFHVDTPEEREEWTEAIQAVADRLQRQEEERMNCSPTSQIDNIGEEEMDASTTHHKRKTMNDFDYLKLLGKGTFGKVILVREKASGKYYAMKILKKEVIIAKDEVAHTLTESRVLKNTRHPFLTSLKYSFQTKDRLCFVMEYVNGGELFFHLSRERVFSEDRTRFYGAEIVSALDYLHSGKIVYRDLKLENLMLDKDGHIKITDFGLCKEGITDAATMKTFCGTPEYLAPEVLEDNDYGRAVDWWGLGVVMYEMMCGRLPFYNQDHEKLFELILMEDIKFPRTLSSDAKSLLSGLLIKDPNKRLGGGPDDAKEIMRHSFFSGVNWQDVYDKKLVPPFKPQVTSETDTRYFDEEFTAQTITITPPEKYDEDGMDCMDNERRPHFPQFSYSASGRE

Rattus norvegicus [17] = assay: Toxicity in Sprague-Dawley rat at 75 mg/kg/day, po after 14 days; type: organism-based; design: route oral; settings: in vivo, 336 h

IC50 (MCF7 [1]): 1750 nM
SMILES: CCOC(=O)c1ccc2[nH]cc(Cc3c[nH]c4ccc(C(=O)OCC)cc34)c2c1

IC50 (MCF7 [1]): > 10000 nM
SMILES: CN(C)C(=O)c1ccc2[nH]cc(Cc3c[nH]c4ccc(C(=O)N(C)C)cc34)c2c1

IC50 (MCF7 [1]): 940 nM
SMILES: c1ccc2[nH]c(Cc3cc4ccccc4[nH]3)cc2c1

IC50 (MCF7 [1]): 80 nM
SMILES: CCOC(=O)Oc1c2[nH]c3ccccc3c2cc2c1[nH]c1ccccc12
inhibition in vivo at 10 mg/kg/day (MCF7 [2]): 43%
inhibition in vivo at 10 mg/kg/day (MCF7 [3]): 26%

IC50 (MCF7 [1]): > 10000 nM
SMILES: CS(=O)(=O)c1ccc2[nH]cc(Cc3c[nH]c4ccc(S(C)(=O)=O)cc34)c2c1

Second part, the molecule before the results:

SMILES: CC(C)(c1c[nH]c2ccccc12)c1c[nH]c2ccccc12
IC50 (MCF7 [1]): > 10000 nM

SMILES: CCOC(=O)c1ccc2[nH]c3c(C(F)(F)C(F)(F)C(F)(F)F)c4[nH]c5ccc(C(=O)OCC)cc5c4cc3c2c1
IC50 (MCF7 [1]): 90 nM

SMILES: c1cc(-c2c[nH]c3ccccc23)cc(-c2c[nH]c3ccccc23)c1
IC50 (MCF7 [1]): > 10000 nM

SMILES: CCOC(=O)Oc1c2[nH]c3ccc(C(=O)OCC)cc3c2cc2c1[nH]c1ccc(C(=O)OCC)cc12
IC50 (MCF7 [1]): 110 nM

SMILES: O=C(O)c1ccc2[nH]cc(Cc3c[nH]c4ccc(C(=O)O)cc34)c2c1
IC50 (MCF7 [1]): > 10000 nM

SMILES: C=C(c1c[nH]c2ccccc12)c1c[nH]c2ccccc12
IC50 (MCF7 [1]): 3300 nM

SMILES: c1ccc2c(Cc3c[nH]c4ccccc34)c[nH]c2c1 [ARUNDINE]
IC50 (MCF7 [1]): 5500 nM

SMILES: CCOC(=O)c1ccc2[nH]c3c(OC)c4[nH]c5ccc(C(=O)OCC)cc5c4cc3c2c1 [SR-13668]
Activity (Mus musculus [4]): Non-toxic
Activity (PC-3 [5]): Active
Activity [6]: inactive
Activity (Mus musculus [7]): Active
Activity (Rattus norvegicus [8]): Non-toxic
Activity (MDA-MB-231): Active
Activity (Rattus norvegicus [9]): Non-toxic
Activity [10]: inactive
Activity (MDA-MB-468): Active
Activity (PC-3 [11]): Active
Activity (SK-OV-3): Active
Activity (Homo sapiens): inactive
IC50 (MCF7 [1]): 190 nM
Activity (Rattus norvegicus [12]): Non-toxic
Activity [13]: Active
Activity [14]: inactive
Activity (Mus musculus [15]): Active
Activity [16]: inactive
Activity (Rattus norvegicus [17]): Non-toxic
